Structures can show the parent of a compound that is named as a salt.
Tests used:
[1] = tested on: HCT116; experiment: AC50 cell viability (CellTiter-Glo); higher = less potent; conditions: 48 h
[2] = tested on: HCT116; experiment: efficacy (fitted maximal change in viability relative to DMSO control); higher = less cytotoxic (negative = loss of viability); conditions: 48 h
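Wherever AC50 cell viability (CellTiter-Glo) is given: HCT116 colorectal carcinoma cells screened at five concentrations per compound, luminescent viability scaled between DMSO wells and empty wells on each plate, curves fitted per compound.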
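Wherever efficacy (fitted maximal change in viability relative to DMSO control) is given: Luminescence-based viability readout, five doses per compound, normalized against on-plate DMSO and empty-well controls, followed by dose-response curve fitting for every drug.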

Compound | AC50 cell viability [1] [µM] | efficacy [2] [%]
COc1cc2c(NC3CCN(C(C)C)CC3)nc(C3CCCCC3)nc2cc1OCCCN1CCCC1 [UNC-0638] | 8.33 | -94.9
COc1cc2c(NC3CCN(C4CCCCC4)CC3)nc(N3CCCN(C(C)C)CC3)nc2cc1OCCCN1CCCCC1 [UNC-0646] | 2.95 | -102
CCCCNc1ncc2c(-c3ccc(CN4CCN(C)CC4)cc3)cn(C3CCC(O)CC3)c2n1 (stereo not given) [UNC-2025] | 1.66 | -74.3
CC(C)Nc1cc(-c2c[nH]c(C(=O)N[C@H](CO)c3cccc(Cl)c3)c2)c(Cl)cn1 [Ulixertinib] | 1.86 | -114
CC(C)OC1=C(F)C=C(C=C1)C2=N[N]([C@@H](C)C/3=C(C4=CC(=CC=C4)F)/C(=O)C5=CC(=CC=C5O3)F)C6=C2C(=NC=N6)N [Umbralisib] | 14.8 | -35.3
CC[C@]1(O)C[C@H]2CN(CCC3=C([NH]C4=C3C=CC=C4)[C@@](C2)(C(=O)OC)C5=C(OC)C=C6N(C)[C@H]7[C@](O)([C@H](OC(C)=O)[C@]8(CC)\C=C/CN9CC[C@]7([C@H]89)C6=C5)C(=O)OC)C1 [VINBLASTINE SULFATE] | 0.372 | -53.2
C/C(=N\Nc1nnc2c(n1)[nH]c1c(C)cccc12)c1ccccn1 [VLX-600] | 0.742 | -87.1
C=CC(=O)N1CC/C(=C\c2ccc(F)c([N+](=O)[O-])c2)C(=O)/C(=C/c2ccc(F)c([N+](=O)[O-])c2)C1 [VLX-1570] | 0.295 | -81.4
CC(C)(O)CNc1ncc(-c2ccnc(Nc3ccncc3)n2)c(CC2CC2)n1 [VPS34 Inhibitor 1 (Compound 19, PIK-III analogue)] | 13.2 | -109
CCCCC(=O)OCC(=O)[C@]1(O)Cc2c(O)c3c(c(O)c2[C@@H](O[C@H]2C[C@H](NC(=O)C(F)(F)F)[C@H](O)[C@H](C)O2)C1)C(=O)c1c(OC)cccc1C3=O [Valrubicin] | 1.86 | -88.9
C/C=C/C[C@@H](C)C(=O)[C@H]1C(=O)N[C@@H](C(C)C)C(=O)N(C)CC(=O)N(C)[C@@H](CC(C)C)C(=O)N[C@@H](C(C)C)C(=O)N(C)[C@@H](CC(C)C)C(=O)N[C@@H](C)C(=O)N[C@H](C)C(=O)N(C)[C@@H](CC(C)C)C(=O)N(C)[C@@H](CC(C)C)C(=O)N(C)[C@@H](C(C)C)C(=O)N1C [Valspodar] | 8.11 | -53.6
COc1cc2c(Nc3ccc(Br)cc3F)ncnc2cc1OCC1CCN(C)CC1 [Vandetanib] | 14.8 | -108
Fc1ccc(C(OCCN2CCN(CCCc3ccccc3)CC2)c2ccc(F)cc2)cc1 [Vanoxeamine] | 11.8 | -96.8
C[C@@H]\1COC(=N1)\NC2=CC3=C(C=C2)N=CN=C3NC4=CC(=C(OCC5=NC=CS5)C=C4)Cl [Varlitinib tosylate] | 16.6 | -87.5
O=C(/C=C\n1cnc(-c2cc(C(F)(F)F)cc(C(F)(F)F)c2)n1)NNc1ccccn1 [Verdinexor] | 0.59 | -83.9
COC1=CC(=CC=C1)C2=CC=C(NC(=O)/C3=C(/CCC3)C(O)=O)C(=C2)F [Vidofludimus] | 5.25 | -50.2
CC[C@]1(O)C[C@H]2CN(CCC3=C([NH]C4=C3C=CC=C4)[C@@](C2)(C(=O)OC)C5=CC6=C(C=C5OC)N(C=O)[C@H]7[C@](O)([C@H](OC(C)=O)[C@]8(CC)\C=C/CN9CC[C@]67[C@H]89)C(=O)OC)C1 [Vincristine sulfate] | 0.372 | -60.7
CC[C@]12\C=C/CN3CC[C@]4([C@@H](N(C)C5=C4C=C(C(=C5)OC)[C@]6(CC7C[C@H](CN(C7)CC8=C6[NH]C9=C8C=CC=C9)C(C)(F)F)C(=O)OC)[C@](O)([C@@H]1OC(C)=O)C(=O)OC)[C@H]23 (stereo not given in full) [Vinflunine (Tartrate)] | 0.209 | -67.8
CC[C@]12\C=C/CN3CC[C@]4([C@@H](N(C)C5=CC(=C(C=C45)[C@]6(C[C@H]7C[C@H](CN(C7)CC8=C6[NH]C9=C8C=CC=C9)C(C)(F)F)C(=O)OC)OC)[C@](O)([C@@H]1OC(C)=O)C(=O)OC)[C@H]23 [Vinflunine] | 0.0986 | -64.1
CCC1=C[C@@H]2CN(C1)Cc1c([nH]c3ccccc13)[C@@](C(=O)OC)(c1cc3c(cc1OC)N(C)[C@H]1[C@@](O)(C(=O)OC)[C@H](OC(C)=O)[C@]4(CC)C=CCN5CC[C@]31[C@@H]54)C2 [Vinorelbine (ditartrate)] | 0.129 | -60.3
CNC(=O)c1cccc(-c2ccc3c(N4CCOC[C@@H]4C)nc(N4CCOC[C@@H]4C)nc3n2)c1 [Vistusertib] | 0.417 | -31.3
CC[C@@H]1C(=O)N(C)c2cnc(Nc3ccc(C(=O)NC4CCC(N5CCN(CC6CC6)CC5)CC4)cc3OC)nc2N1C(C)C (stereo not given in full) [Volasertib] | 0.0661 | -89.8
CN1CC[C@H]([C@@H]1CO)C2=C3OC(=C/C(=O)C3=C(O)C=C2O)\C4=C(Cl)C=C(C=C4)C(F)(F)F [Voruciclib] | 7.42 | -83.8
CN[C@H]1CN(C[C@@H]1OC)C2=NC3=C(C=C2)C(=O)C(=C\N3C4=NC=CS4)/C(O)=O [Vosaroxin] | 1.91 | -59.8
CCN1C(=O)\C(=C/C2=C(C)N=C(N)N=C12)C3=CC=N[NH]3 [Voxtalisib] | 5.25 | -60.4

Compound | AC50 cell viability [1] [µM] | efficacy [2] [%]
c1cncc(CN2CCC(n3ncc4c(N5CCOCC5)nc(-c5ccc6[nH]ccc6c5)nc43)CC2)c1 [WAY-600] | 5.9 | -78.7
Cc1ccc(-c2nn(C(C)(C)CNC(=O)c3ccncc3)c3ncnc(N)c23)cc1 [WEHI-345] | 6.61 | -53
COc1cc2ncnc(Nc3ccc(O)c(Br)c3)c2cc1OC [WHI-P154] | 14.8 | -72.5
CC(C)(C)NC(=O)c1cncn1C1CCN(c2ccc(-c3nnc(C(F)(F)F)o3)cn2)CC1 [WNK-463] | 3.72 | -49.1
CN1CCN(Cc2ccc(NC(=O)Nc3ccc(Oc4cc(NC(=O)C5CC5)ncn4)cc3)cc2C(F)(F)F)CC1 [WS-3] | 0.0934 | -73.9
O=C(CCCCCCC(=O)N/N=C/c1ccc(N(c2ccccc2)c2ccccc2)cc1)NO [WT-161] | 2.09 | -86.8
COC(=O)Nc1ccc(-c2nc(N3CCOCC3)c3cnn(C4CCN(C(=O)OC)CC4)c3n2)cc1 [WYE-354] | 1.32 | -56.3
COC(=O)Nc1ccc(-c2nc(N3CCOCC3)c3cnn(C4CCN(Cc5cccnc5)CC4)c3n2)cc1 [WYE-687] | 13.2 | -135
C=CC(=O)Nc1cccc(Oc2nc(Nc3ccc(N4CCN(C)CC4)cc3)ncc2Cl)c1 [WZ-3146] | 4.17 | -101
C=CC(=O)Nc1cccc(Oc2nc(Nc3ccc(N4CCN(C)CC4)cc3OC)ncc2Cl)c1 [WZ-4002] | 11.8 | -96.5
CCC(=O)Nc1cccc(Oc2nc(Nc3ccc(N4CCN(C)CC4)cc3OC)ncc2Cl)c1 [WZ-4003] | 6.61 | -65.7
C=CC(=O)Nc1cccc(Sc2nc(Nc3ccc(N4CCN(C)CC4)cc3)ncc2Cl)c1 [WZ-8040] | 7.42 | -108
C[C@H]([C@H]1C\C(=C(CO)/C(=O)O1)C)[C@H]2CC[C@H]3[C@@H]4C[C@H]5O[C@]56[C@@H](O)\C=C/C(=O)[C@]6(C)[C@H]4CC[C@]23C [Withaferin A] | 1.66 | -102
CCN1CCC(n2cc(CNc3cc(Cl)c4ncc(C#N)c(Nc5ccc(F)c(Cl)c5)c4c3)nn2)CC1 [Wyeth Cot Inhibitor 2] | 20.9 | -98.5
COc1cc2c(Nc3ccc(Cl)c(Cl)c3F)ncnc2cc1OC[C@@H]1C[C@@H]2CN(C)C[C@@H]2C1 [XL647] | 11.8 | -113
ClC1=CC=C2OC3=C(\N=C(NC3=O)\[C@@H]4CCCN4)C2=C1 [XL 413 hydrochloride] | 14.8 | -47.6
CC(C)c1cc(CNc2nc(Nc3cc(C4CC4)[nH]n3)cc(N3CCN(C)CC3)n2)on1 [XL-228] | 0.295 | -64
Cc1c(C(=O)N2CCOc3ccc(-c4ccc(N)nc4)cc3C2)ccc([S+](C)(=O)[O-])c1F [XL-388] | 10.5 | -65.5
COCCOC(=O)N1CCN([S+](=O)([O-])c2cc(F)c(Oc3ccc(Cl)cc3)c(F)c2)C(C(=O)NO)C1 (stereo not given) [XL-784] | 10.5 | -92.6
CC[C@@H](C)Nc1cc(C(=O)NC2CC3CCC(C2)N3c2ccc(C(=O)C3CC3)cn2)c(C)cc1C(N)=O (stereo not given in full) [XL-888] | 0.118 | -56.5
CC[C@@H](C)Nc1cc(C(=O)NC2CC3CC[C@@H](C2)N3c2ccc(C(=O)C3CC3)cn2)c(C)cc1C(N)=O (stereo not given in full) [XL-888] | 0.0833 | -59.7
COc1cc(N2CCN(C)CC2)ccc1Nc1ncc2c(n1)N(C)c1ccccc1C(=O)N2 [XMD8-87] | 18.6 | -92.7
CCOc1cc(N2CCC(O)CC2)ccc1Nc1ncc2c(n1)N(C)c1ccccc1C(=O)N2C [XMD8-92] | 8.33 | -80.7
COc1cc(N2CCN(C)CC2)ccc1Nc1ncc2c(n1)N(C)c1ccccc1C(=O)N2C [XMD17-109 (ERK5-IN-1)] | 9.34 | -89.1
CCOc1cc(C(=O)N2CCC(N3CCN(C)CC3)CC2)ccc1Nc1ncc2c(n1)N(C1CCCC1)c1ccccc1C(=O)N2C [XMD17-109] | 7.42 | -104
